Experimental data reported in ChEMBL document CHEMBL4033619, “Autophagy antagonizes apoptosis induced by flavan enantiomers from Daphne giraldii in hepatic carcinoma cells in vitro” (Eur J Med Chem, 2017).
Activity calls are given as the source filed them. No cut-off for these calls is given here.

Experiments:
A549 [1] = assay: Cytotoxicity against human A549 cells by MTT assay; format: functional, cell-based
MCF7 [2] = assay: Growth inhibition of human MCF7 cells after 48 hrs by MTT assay; format: functional, cell-based
MCF7 [3] = assay: Cytotoxicity against human MCF7 cells by MTT assay; format: functional, cell-based
HepG2 [4] = assay: Growth inhibition of human HepG2 cells after 48 hrs by MTT assay; format: functional, cell-based
Hep 3B2 [5] = assay: Growth inhibition of human Hep3B cells after 48 hrs by MTT assay; format: functional, cell-based
A549 [6] = assay: Growth inhibition of human A549 cells after 48 hrs by MTT assay; format: functional, cell-based
HepG2 [7] = assay: Cytotoxicity against human HepG2 cells by MTT assay; format: functional, cell-based
Hep 3B2 [8] = assay: Cytotoxicity against human Hep3B cells by MTT assay; format: functional, cell-based
Hep 3B2 [9] = assay: Induction of apoptosis in human Hep3B cells assessed as decrease in PARP level at 30 uM in presence of autophagy inhibitor bafilomycin A1 by Western blot analysis; format: functional, cell-based
Hep 3B2 [10] = assay: Induction of apoptosis in human Hep3B cells assessed as increase in FADD level at 30 uM in presence of autophagy inhibitor bafilomycin A1 by Western blot analysis; format: functional, cell-based
Hep 3B2 [11] = assay: Induction of apoptosis in human Hep3B cells assessed as increase in caspase 7 level by Western blot analysis; format: functional, cell-based
[12] = target: T1, AMP-activated protein kinase, AMPK (Homo sapiens) (UniProt P54646+O43741+P54619+Q9UGJ0+Q9Y478+Q13131+Q9UGI9); assay: Increase in AMPK phosphorylation at Thr172 in human Hep3B cells at 30 uM in presence of autophagy inhibitor bafilomycin A1 by Western blot analysis; format: cell-based
Hep 3B2 [13] = assay: Induction of autophagy in human Hep3B cells at 30 uM after 48 hrs by MDC staining-based fluorescence microscopic method; format: functional, cell-based
Hep 3B2 [14] = assay: Induction of apoptosis in human Hep3B cells assessed as increase in caspase 8 level at 30 uM in presence of autophagy inhibitor bafilomycin A1 by Western blot analysis; format: functional, cell-based
Hep 3B2 [15] = assay: Induction of apoptosis in human Hep3B cells assessed as increase in Bax level at 30 uM in presence of autophagy inhibitor bafilomycin A1 by Western blot analysis; format: functional, cell-based
Hep 3B2 [16] = assay: Induction of apoptosis in human Hep3B cells assessed as effect on cleaved PARP level at 15 to 60 uM by Western blot analysis; format: functional, cell-based
Hep 3B2 [17] = assay: Induction of apoptosis in human Hep3B cells assessed as increase in FADD level by Western blot analysis; format: functional, cell-based
Hep 3B2 [18] = assay: Induction of apoptosis in human Hep3B cells assessed as membrane blebbing at 30 uM after 48 hrs by phase contrast microscopic analysis; format: functional, cell-based
Hep 3B2 [19] = assay: Induction of apoptosis in human Hep3B cells assessed as increase in caspase 8 level by Western blot analysis; format: functional, cell-based
Hep 3B2 [20] = assay: Induction of autophagy in human Hep3B cells assessed as increase in conversion of LC3-1 to LC3-2 at 10 to 60 uM by Western blot analysis; format: functional, cell-based
Hep 3B2 [21] = assay: Down regulation of AMPK expression in human Hep3B cells at 30 uM in presence of autophagy inhibitor bafilomycin A1 by Western blot analysis; format: functional, cell-based
Hep 3B2 [22] = assay: Effect on AMPK expression in human Hep3B cells at 15 to 60 uM by Western blot analysis; format: functional, cell-based
Hep 3B2 [23] = assay: Induction of apoptosis in human Hep3B cells assessed as increase in cleaved PARP level at 30 uM in presence of autophagy inhibitor bafilomycin A1 by Western blot analysis; format: functional, cell-based
Hep 3B2 [24] = assay: Induction of autophagy in human Hep3B cells assessed as decrease in p62 level at 15 to 60 uM by Western blot analysis; format: functional, cell-based
Hep 3B2 [25] = assay: Cytotoxicity against human Hep3B cells assessed as reduction in cell growth at 30 uM in presence of autophagy inhibitor bafilomycin A1 by MTT assay; format: functional, cell-based
Hep 3B2 [26] = assay: Induction of apoptosis in human Hep3B cells assessed as increase in caspase 9 level at 30 uM in presence of autophagy inhibitor bafilomycin A1 by Western blot analysis; format: functional, cell-based
Hep 3B2 [27] = assay: Induction of apoptosis in human Hep3B cells assessed as nuclear fragmentation at 30 uM in presence of autophagy inhibitor bafilomycin A1 by Hoechst 33258 staining-based fluorescence microscopy; format: functional, cell-based
Hep 3B2 [28] = assay: Induction of apoptosis in human Hep3B cells assessed as increase in Bax level by Western blot analysis; format: functional, cell-based
Hep 3B2 [29] = assay: Induction of apoptosis in human Hep3B cells assessed as increase in caspase 7 level at 30 uM in presence of autophagy inhibitor bafilomycin A1 by Western blot analysis; format: functional, cell-based
Hep 3B2 [30] = assay: Induction of apoptosis in human Hep3B cells assessed as chromatin condensation at 30 uM in presence of autophagy inhibitor bafilomycin A1 by Hoechst 33258 staining-based fluorescence microscopy; format: functional, cell-based
Hep 3B2 [31] = assay: Induction of apoptosis in human Hep3B cells assessed as decrease in PARP level at 15 to 60 uM by Western blot analysis; format: functional, cell-based
Hep 3B2 [32] = assay: Induction of apoptosis in human Hep3B cells assessed as chromatin condensation at 30 uM after 48 hrs by Hoechst 33258 staining-based fluorescence microscopy; format: functional, cell-based
Hep 3B2 [33] = assay: Induction of apoptosis in human Hep3B cells assessed as nuclear fragmentaion at 30 uM after 48 hrs by Hoechst 33258 staining-based fluorescence microscopy; format: functional, cell-based
[34] = target: T1, AMP-activated protein kinase, AMPK (Homo sapiens); assay: Increase in AMPK phosphorylation at Thr172 in human Hep3B cells at 15 to 60 uM by Western blot analysis; format: cell-based
Hep 3B2 [35] = assay: Induction of apoptosis in human Hep3B cells assessed as cell shrinkage at 30 uM after 48 hrs by phase contrast microscopic analysis; format: functional, cell-based
Hep 3B2 [36] = assay: Induction of apoptosis in human Hep3B cells assessed as increase in caspase 9 level by Western blot analysis; format: functional, cell-based

Compound: CC1(C)C=Cc2c(C3CCc4ccc(O)cc4O3)ccc(O)c2O1 (racemic)
- IC50 (A549 [1]): > 100 µM
- growth inhibition (GI) (MCF7 [2]): Dose-dependent effect
- IC50 (MCF7 [3]): > 100 µM
- growth inhibition (GI) (HepG2 [4]): Dose-dependent effect
- growth inhibition (GI) (Hep 3B2 [5]): Dose-dependent effect
- growth inhibition (GI) (A549 [6]): Dose-dependent effect
- IC50 (HepG2 [7]): 92.8 µM
- IC50 (Hep 3B2 [8]): 57.4 µM

Compound: CC1(C)C=Cc2c([C@H]3CCc4ccc(O)cc4O3)ccc(O)c2O1
- IC50 (A549 [1]): > 100 µM
- growth inhibition (GI) (MCF7 [2]): Dose-dependent effect
- IC50 (MCF7 [3]): > 100 µM
- growth inhibition (GI) (HepG2 [4]): Dose-dependent effect
- growth inhibition (GI) (Hep 3B2 [5]): Dose-dependent effect
- growth inhibition (GI) (A549 [6]): Dose-dependent effect
- IC50 (HepG2 [7]): > 100 µM
- IC50 (Hep 3B2 [8]): 63.6 µM

Compound: CC1(C)CCc2c([C@@H]3CCc4ccc(O)cc4O3)ccc(O)c2O1
- IC50 (A549 [1]): > 100 µM
- growth inhibition (GI) (MCF7 [2]): Dose-dependent effect
- IC50 (MCF7 [3]): > 100 µM
- growth inhibition (GI) (HepG2 [4]): Dose-dependent effect
- growth inhibition (GI) (Hep 3B2 [5]): Dose-dependent effect
- growth inhibition (GI) (A549 [6]): Dose-dependent effect
- IC50 (HepG2 [7]): > 100 µM
- IC50 (Hep 3B2 [8]): 44.7 µM

Compound: CC(C)=CCc1c([C@@H]2CCc3ccc(O)cc3O2)cc2c(c1O)OC(C)(C)C=C2 [KAZINOL B]
- IC50 (A549 [1]): > 100 µM
- growth inhibition (GI) (MCF7 [2]): Dose-dependent effect
- IC50 (MCF7 [3]): > 100 µM
- growth inhibition (GI) (HepG2 [4]): Dose-dependent effect
- growth inhibition (GI) (Hep 3B2 [5]): Dose-dependent effect
- growth inhibition (GI) (A549 [6]): Dose-dependent effect
- IC50 (HepG2 [7]): 58.4 µM
- IC50 (Hep 3B2 [8]): 39 µM

Compound: CC(C)=CCc1c([C@H]2CCc3ccc(O)cc3O2)cc2c(c1O)OC(C)(C)C=C2
- Activity (Hep 3B2 [9]): Active
- Activity (Hep 3B2 [10]): Active
- IC50 (A549 [1]): > 100 µM
- growth inhibition (GI) (MCF7 [2]): Dose-dependent effect
- Activity (Hep 3B2 [11]): Dose-dependent effect
- Activity [12]: Active
- Activity (Hep 3B2 [13]): Active
- Activity (Hep 3B2 [14]): Active
- Activity (Hep 3B2 [15]): Active
- Activity (Hep 3B2 [16]): Active
- IC50 (MCF7 [3]): > 100 µM
- growth inhibition (GI) (HepG2 [4]): Dose-dependent effect
- Activity (Hep 3B2 [17]): Dose-dependent effect
- Activity (Hep 3B2 [18]): Active
- Activity (Hep 3B2 [19]): Dose-dependent effect
- Activity (Hep 3B2 [20]): Active
- growth inhibition (GI) (Hep 3B2 [5]): Dose-dependent effect
- Activity (Hep 3B2 [21]): Active
- Activity (Hep 3B2 [22]): inactive
- Activity (Hep 3B2 [23]): Active
- Activity (Hep 3B2 [24]): Active
- Activity (Hep 3B2 [25]): Active
- growth inhibition (GI) (A549 [6]): Dose-dependent effect
- Activity (Hep 3B2 [26]): Active
- Activity (Hep 3B2 [27]): Active
- Activity (Hep 3B2 [28]): Dose-dependent effect
- Activity (Hep 3B2 [29]): Active
- Activity (Hep 3B2 [30]): Active
- Activity (Hep 3B2 [31]): Active
- Activity (Hep 3B2 [32]): Active
- Activity (Hep 3B2 [33]): Active
- Activity [34]: Active
- Activity (Hep 3B2 [35]): Active
- Activity (Hep 3B2 [36]): Dose-dependent effect
- IC50 (HepG2 [7]): 64.2 µM
- IC50 (Hep 3B2 [8]): 30.3 µM

Compound: CC(C)=CCc1c([C@H]2CCc3ccc(O)cc3O2)ccc(O)c1O [KAZINOL U]
- IC50 (A549 [1]): > 100 µM
- growth inhibition (GI) (MCF7 [2]): Dose-dependent effect
- IC50 (MCF7 [3]): > 100 µM
- growth inhibition (GI) (HepG2 [4]): Dose-dependent effect
- growth inhibition (GI) (Hep 3B2 [5]): Dose-dependent effect
- growth inhibition (GI) (A549 [6]): Dose-dependent effect
- IC50 (HepG2 [7]): > 100 µM
- IC50 (Hep 3B2 [8]): 51.1 µM

Compound: CC(C)=CCc1c(C2CCc3ccc(O)cc3O2)cc2c(c1O)OC(C)(C)C=C2 (racemic)
- IC50 (A549 [1]): 92.5 µM
- growth inhibition (GI) (MCF7 [2]): Dose-dependent effect
- IC50 (MCF7 [3]): > 100 µM
- growth inhibition (GI) (HepG2 [4]): Dose-dependent effect
- growth inhibition (GI) (Hep 3B2 [5]): Dose-dependent effect
- growth inhibition (GI) (A549 [6]): Dose-dependent effect
- IC50 (HepG2 [7]): 92.3 µM
- IC50 (Hep 3B2 [8]): 97.8 µM
